Values quoted from earlier work in patent US11147926B2, “Intrathecal baclofen pharmaceutical dosage forms and related delivery system” (PIRAMAL CRITICAL CARE, INC., priority 2008, dated 2021).

Key:
[1] = injected into the intrathecal space of a patient, at effective CSF concentrations, versus oral

solubility in chloroform (chloroform): insoluble
solubility in methanol (methanol): very slightly soluble
solubility in water (water): slightly soluble
plasma concentrations, times less than with oral administration [1]: 100 times
SMILES: NCC(CC(=O)O)c1ccc(Cl)cc1 (stereo not shown) [Baclofen, 4-amino-3-(p-chlorophenyl)butyric acid]
